Measured values published in patent publication US20020086027A1, “Composition and method for enhancing immunological memory response” (priority 1998, published 2002).

Legend:
human T cells [1] = experiment: Primary alloproliferative response of responder PBMCs to irradiated MHC-mismatched stimulator PBMCs ([3H]thymidine incorporation); format: cell-based
Method: In this system, we have used responses to first exposure as an indication of primary responses. When cells stimulated in this fashion are rested in culture and then restimulated with the same stimulator PBMCs, the 'recall' response measured are taken as an indication of immune memory. Proliferation is measured by the incorporation of radioactive tritiated thymidine in dividing cells. PBMCs from HLA-mismatched individuals were separated using density-gradient centrifugation on Ficoll-Paque (Pharmacia, Uppsala, Sweden). Stimulator PBMCs were used in titrated doses after g-irradiation (200 rads). For the primary proliferative alloresponses, stimulator in graded doses were used with 1-3×10^5 responders per well in 200 μl of RPMI-1640 (Life Technologies, Grand Island, N.Y.) fortified with L-glutamine (Life Technologies) and antibiotics, containing 10% heat-inactivated responder autologous serum. Cultures were incubated in a CO2 atmosphere for five days, pulsed with 0.5 uCi of (H^3)-thymidine (New England Nuclear, Boston, Mass.) for the last 8-12 hours of the assay and harvested onto glass fiber filters for counting cell-incorporated thymidine (Betaplate; Wallac, Finland). results are expressed as mean cpm±SE for triplicate cultures. Dibutyryl cyclic AMP (dbcAMP), pentoxifylline (POX), aphidicolin (all from Sigma Chemical Co., St Louis, Mo.) and recombinant IL-2 (Boehringer Manheim Corp., Manheim Germany) were added singly or together to the culture in various doses as indicated during priming and in primary alloresponse assays. […] Sigma Chemical Co.) at room temperature for 20 minutes, washed extensively and used. PBMCs from MHC-mismatched donors were used as responder-stimulator pairs. Stimulator cells were used after γ-irradiation (200 rad) at various concentrations, as shown. Proliferation assays were set up as parallel cultures and were pulsed and harvested as below on different days when necessary for the analyses of the kinetics of the response. Where appropriate, cyclosporin A (CsA, Sandoz, Milan, Italy), aphidicolin (Aph, Sigma Chemical Co., and/or pentoxifylline ([…], Sigma Chemical Co.) Were added at the concentrations indicated, or PFA-fixed PBMCs were used. The plated were pulsed with 0.5 to 1 μCi of (^3H)thymidine ([^3H]TdR. Amersham, Little Chalfont, U.K.) During the last 12 to 16 h of the assay (4 days for a recall assay and 6 days for a primary assay, unless indicated otherwise). [^3H] TdR incorporation was measured by harvesting the cultures on glass-fibers and counting in a scintillation counter (Betaplate: LKB-Pharmacia. Uppsala, […]). The results are expressed as mean cpm±SE of triplicate cultures.

CD25+ CD4 T cells = experiment: Flow cytometry of CD25 and Fas (CD95) on primed cells; format: cell-based, human; details: aphidicolin 1 ug/ml present during two-day rest period
Method: For analysis of cell surface markers, primed cell populations separated on Ficoll-Paque gradients were used. […] Briefly, 1-3×10^5 cells per well were stained with primary antibodies at 4° C., followed by appropriately labeled secondary reagents if required. Samples were analyzed using a Bryte flow cytometer (bio-Rad, Hemel Hampstead, UK). Antibodies to the T cell markers CD3 (OKT3), CD4 (OKT4), and to the activation markers CD25 and Fas (CD95) were used for staining. To detect apoptosis using propidium iodide (PI, Sigma Chemical Co.), antibody-stained cells were fixed and permeabilized with 70% ethanol, washed, and PI […] added just before cytometric analysis. Data were analyzed using FlowJo software (Treestar, San Jose, Calif.).
The phenotype of CD4 T cells activated during priming in vitro was examined next using various markers associated with T cell activation. Antibodies against CD25 (IL-2Ra), CD26, CD45RO, CD69 and gp240 were used, but except for CD25, none of the other markers gave consistent and reliable results (data not shown). CD25 expression on CD4 T cells in the responder populations was examined in a two-color flow cytometric analysis at two separate time points,—at the end of six days of priming and after two further rest days in culture after washing and resuspension in resh medium without any stimuli. Most CD25-expressing cells in the primed cultures were CD4 T cells. […] The frequency of CD25 expression increased in the PBMC-primed responders (FIG. 17B) and this percentage was lower if POX (100 μg/ml) was present during priming (FIG. 17C). […] Similar data were observed if dbcAMP was present during priming (data not shown). It can be seen that the proportion of CD25* cells was reproducibly lower if POX was present during priming with allo-PBMCs. However, after 48 hours of rest in culture, the frequency of CD25* cells declined in the populations primed in the absence of POX, while it went up in the group primed under POX cover.

human T cells [2] = experiment: Secondary (recall) alloproliferative response of T cells primed in vitro; format: cell-based
Method: In this system, we have used responses to first exposure as an indication of primary responses. When cells stimulated in this fashion are rested in culture and then restimulated with the same stimulator PBMCs, the 'recall' response measured are taken as an indication of immune memory. Proliferation is measured by the incorporation of radioactive tritiated thymidine in dividing cells. For priming, responder and stimulator cells mixed in 2-5 ml cultures in a ratio of 1:1-3:1. After five days of incubation, the cells were harvested, counted and viable cells used as primed responders with g-irradiated allostimulators in secondary alloproliferation assays, which were pulsed with (H^3)-thymidine after four days for estimating cell proliferation. For flow cytometric analysis, cells were separated from debris by Ficoll-Paque gradient centrifugation before staining. […] Sigma Chemical Co.) at room temperature for 20 minutes, washed extensively and used. For priming in vitro, responder PBMCs were incubated for 72 or 144 h at a ratio of either 1:1 or 2:1 respectively, with stimulator PBMCs. Where appropriate, CsA. Aph. and/or […] were added at the concentrations indicated, of PFA-fixed PBMCs were used instead.

[3] = test system: allo-specific precursor T cells; experiment: Limiting dilution analysis of clonal responder frequency and burst size; format: cell-based, human; details: drug present during priming (POX 100 ug/ml)
From the text: Limiting dilution analyses were used to calculate the number of transplantation antigen-specific memory T cells in cultures primed in the presence or absence of POX. Multiple replicate wells of titrated numbers of primed responders were restimulated. the numbers of wells showing proliferative responses at each responder dose were used to calculate the frequency of responding memory t cells in the primed populations. estimates of the extent of proliferation in wells effectively containing single responder cells served as a measure of clonal burst size. […] To determine the frequence of all-specific precursor cells in the various responder populations, titrating numbers (from 10,000 to 200 per well) of variously primed cells were added to a constant number (1×10^5 per well) of g-irradiated stimulator PBMCs. Of the 48 wells plated per responder dose, those wells showing a response at least twice that of the background value were scored positive. The responder frequency was calculated by taking the number of negative wells into account. The response was considered clonal at the responder cell number where the proportion of positively responding wells was less than 37%. At responder cell concentrations showing clonal frequencies, the average cpm values of responding (versus non-responding) wells were used as an estimate of the average clonal burst size of single responding T cells.

C[C@@]1(CO)[C@H](O)CC[C@@]2(C)[C@H]1CC[C@H]1C[C@@H]3C[C@@]12CC[C@]3(O)CO [Aph, aphidicolin]
T cell proliferation in first response (human T cells [1]; 1 μg/ml Aph): inhibited substantially | T cell proliferation in first response (human T cells [1]; 3 μg/ml Aph): completely undetectable | kinetics of primary response (human T cells [1]; days 4-10, drugs present throughout): declines equivalently | primary response after drug removal (human T cells [1]; drugs removed on day 6, pulsed days 8 and 10): no increase | increase in frequency of CD25+ cells in responders exposed to POX during priming (CD25+ CD4 T cells): does not abrogate | responses of unprimed PBMCs incubated with Aph (human T cells [2]; no stimulators): unaltered | recall response (human T cells [2]; primed with 1 μg/ml Aph vs primed in absence of Aph): comparable | recall response (human T cells [2]; primed with 3 μg/ml Aph): significant enhancement

CCCC(=O)Nc1ncnc2c1ncn2[C@@H]1O[C@@H]2COP(=O)(O)O[C@H]2[C@H]1OC(=O)CCC [dbcAMP, Dibutyryl cyclic AMP]
primary proliferative response (human T cells [1]; 1 mM dbcAMP): inhibits | primary proliferative response (human T cells [1]; 10 mM dbcAMP): No effect | primary proliferative response (human T cells [1]; 100 mM dbcAMP): does inhibit | frequency of alloreactive responder (memory) T cells [3]: significantly enhances | recall response (human T cells [2]; priming in presence of 10 mM dbcAMP): No effect | secondary response (human T cells [2]; priming in presence of 100 mM dbcAMP): significant enhancement

paraformaldehyde [PFA]
primary alloproliferative response to PFA-fixed APCs (human T cells [1]; 0.0003% PFA): significant lowering | recall response capability induced by PFA-fixed APCs (human T cells [2]; 0.003% PFA, vs unfixed APCs): comparable with or greater than | recall response of cells primed with PFA-fixed APCs (human T cells [2]; 0.3% PFA, vs unprimed cells): distinctly lower
